Assay results from paper PMC8667942 (Journal of Enzyme Inhibition and Medicinal Chemistry, 2021).

Target: T1, CYP1A2 (Homo sapiens, UniProt P05177)
T1 construct: from tissue; host or cells: pooled human liver microsomes
T1 sequence (P05177 1-516): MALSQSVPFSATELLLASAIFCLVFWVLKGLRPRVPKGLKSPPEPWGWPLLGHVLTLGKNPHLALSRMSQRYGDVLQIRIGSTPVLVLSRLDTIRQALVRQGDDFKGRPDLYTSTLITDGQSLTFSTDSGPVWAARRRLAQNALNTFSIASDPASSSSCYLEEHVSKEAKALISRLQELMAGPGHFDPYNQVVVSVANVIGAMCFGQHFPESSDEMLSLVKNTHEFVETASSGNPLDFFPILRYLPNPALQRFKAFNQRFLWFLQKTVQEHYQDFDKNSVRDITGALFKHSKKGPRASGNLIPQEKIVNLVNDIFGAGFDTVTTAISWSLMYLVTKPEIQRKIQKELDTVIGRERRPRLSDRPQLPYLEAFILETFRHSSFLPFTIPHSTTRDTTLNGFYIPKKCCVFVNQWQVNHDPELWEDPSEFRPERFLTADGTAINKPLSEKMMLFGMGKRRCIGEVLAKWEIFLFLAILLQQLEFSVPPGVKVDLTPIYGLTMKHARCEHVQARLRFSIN
Assay: Direct CYP inhibition assay, pooled human liver microsomes, LC-MS/MS
Assay type: in vitro ADME
Conditions: pooled HLMs, up to 50 μM, phenacetin substrate
Protocol: Reactions were incubated in eight-well strips placed in an 8 × 12 racks (1.2 ml; VWR, Emeryville, CA). The incubation mixtures (final volume, 200 μL) contained 0.2 mg/mL HLMs, 0.1 M phosphate buffer (pH 7.4), 1 mM NADPH, and various CYP isoform-specific substrate cocktail sets (A set: phenacetin, coumarin, amodiaquine, S-mephenytoin, dextromethorphan, and midazolam; B set: bupropion, tolbutamide, chlorzoxazone, and testosterone). […] Substrates were dissolved and serially diluted with acetonitrile to the required concentration in all experiments. […] The reactions were incubated at 37 °C in a shaking water bath. The reactions were terminated by placing the incubation tubes on ice, adding 200 μL of cold acetonitrile containing carbamazepine (100 nM) and 4-methylumbelliferone (500 nM) as an internal standard after 10 min, and agitating with a vortex mixer before centrifugation. The samples for each enzyme assay were centrifuged at 3,000 × g for 20 min at 4 °C, and supernatants of the individual reaction samples and pooled cocktail incubation samples (A set: B set, 1:1) were analysed using LC-MS/MS.
Sample injection volume was 10 μL, and separation was performed on an Atlantis™ dC18 column (2.1 × 50 mm i.d., 3 μm; Waters, Milford, MA, USA) and Luna™5u C18 column (2.0 × 30 mm i.d.; Phenomenex, Torrance, CA, USA) with a SecurityGuard™ C18 guard column (2.0 × 4.0 mm i.d.; Phenomenex, Torrance, CA, USA) maintained at 30 °C. The column was pre-equilibrated in 100% v/v solvent A (deionized water containing 0.1% v/v formic acid)/0% v/v solvent B (acetonitrile containing 0.1% v/v formic acid) at a flow rate of 0.4 ml/min. […] Quadrupoles Q1 and Q3 were set on unit resolution. The samples were analysed via multiple reaction monitoring (MRM) and enhanced product ion (EPI) scan mode. The turbo ion spray interface was operated in the positive ion mode at 5,500 V. The operating conditions were determined as follows: ion source temperature, 600 °C; nebulising gas flow, 50 L/min; auxiliary gas flow, 4.0 L/min; curtain gas flow, 20 L/min; collision gas (nitrogen) pressure 3.6 × 10^−5 Torr. Nitrogen gas was used for CUR, CAD, and NEB. The MRM transitions, collision energies and retention time were determined for each metabolite. The samples were analysed via MRM as described in our previous study. The scan dwell time was set at 0.08 s for every channel. Data acquisition and analysis was performed using the Analyst™ software (version 1.5.2; Applied Biosystems, Foster City, CA, USA).

## O=[N+]([O-])c1ccc(CNc2nc(NCc3cccc(C(F)(F)F)c3)nc3[nH]cnc23)cc1 [TNP, N^6-[(4-nitrophenyl)methyl]-N^2-[[3-(trifluoromethyl)phenyl]methyl]-9H-purine-2,6-diamine]
  inhibitory effect on CYP1A2: no inhibitory effect
